Data as given in PMC5542402 (Combinatorial chemistry & high throughput screening, 2016).
pKd: −log10 of the molar value.

Target: PhoP (Mycobacterium tuberculosis, UniProt P71814)
Assay type: binding

SMILES: [N-]=[N+]=Nc1ccc(C(=O)CSC[C@H](NC(=O)CC[C@H](N)C(=O)O)C(=O)NCC(=O)O)cc1 [NCGC00093547]
- pKd: 4.90
